According to paper PMC3066269 (Bioorganic & medicinal chemistry, 2011):

Target: hAChE-induced aggregation of Aβ1–40 (Homo sapiens, UniProt P22303)
Assay: hAChE-induced Aβ aggregation inhibition, thioflavin T fluorescence
Format: biochemical
Settings: 100 μM compound, 50 μM Aβ1–40, 24 h, ThT; NA = Not active

Sequence of hAChE-induced aggregation of Aβ1–40 (P22303 32-614): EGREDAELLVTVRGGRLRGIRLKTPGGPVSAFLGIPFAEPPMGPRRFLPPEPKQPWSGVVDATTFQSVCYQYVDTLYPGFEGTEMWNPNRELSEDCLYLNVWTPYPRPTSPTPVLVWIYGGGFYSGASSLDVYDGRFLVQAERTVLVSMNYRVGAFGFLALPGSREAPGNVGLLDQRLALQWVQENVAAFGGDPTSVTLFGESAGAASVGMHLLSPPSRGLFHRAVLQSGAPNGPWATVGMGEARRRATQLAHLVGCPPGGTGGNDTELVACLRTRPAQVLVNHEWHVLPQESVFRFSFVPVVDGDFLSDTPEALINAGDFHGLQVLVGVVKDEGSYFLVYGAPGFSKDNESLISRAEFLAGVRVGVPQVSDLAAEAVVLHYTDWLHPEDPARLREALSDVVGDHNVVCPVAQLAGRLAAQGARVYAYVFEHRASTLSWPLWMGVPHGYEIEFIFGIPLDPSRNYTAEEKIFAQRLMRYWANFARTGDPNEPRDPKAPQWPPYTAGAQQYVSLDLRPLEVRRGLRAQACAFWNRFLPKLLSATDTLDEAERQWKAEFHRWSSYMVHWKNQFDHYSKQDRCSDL

| SMILES | Inhibition of hAChE-induced aggregation of Aβ1–40 at 100 μM ± SEM |
| --- | --- |
| c1ccc(CNc2ccnc(N3CCCC3)n2)cc1 [7a, N-Benzyl-2-(pyrrolidin-1-yl)pyrimidin-4-amine] | did not provide anti-aggregation activity |
| c1ccc(CNc2ccnc(N3CCSCC3)n2)cc1 [7c, N-Benzyl-2-thiomorpholinopyrimidin-4-amine] | either weak or no anti-aggregation activity |
| c1ccc(CCNc2ccnc(N3CCSCC3)n2)cc1 [8c, N-Phenethyl-2-thiomorpholinopyrimidin-4-amine] | either weak or no anti-aggregation activity |
